The text below walks through data of a melting point compilation (Tetko et al.; mined from patent text by program, amines drawn as free bases though some values may be those of a salt).

Each structure is given as a SMILES string. Some results are limits rather than exact numbers.

For orientation: melting point means the temperature, or range, at which the solid turns liquid. For `c1ccc(-c2cncs2)cc1`, the melting point lay in the range of 45 to 46 °C.

Molecule `Cc1cc(Nc2nc(Nc3ccc(N)cc3)nc3ccccc23)[nH]n1` had a melting point of 164 to 167 °C. Next, `CN(C)CCc1nc2cccnc2[nH]1`: 109 to 112 °C. As for `C[C@@H]1COC2(CCCC2)N1C(=O)c1ccccc1`, the figure is 65.5 to 67.5 °C. As for `COc1cc2c(cc1OC)C1(CCN(CCc3ccc([N+](=O)[O-])cc3)CC1)N(Cc1ccc([N+](=O)[O-])cc1)CC2=O`, the figure is 174 to 177 °C. Molecule `CCc1cc(C(=O)c2ccccc2Cl)c(-n2c(C)nnc2CNC(=O)Nc2ccccc2)s1` displayed a melting point of 141 to 143 °C.

`N=C(N)NC1CCC(CCN2CCN(c3ccccc3)CC2)CC1` (stereo not given): the melting point is 140 to 170 °C. On to `Cc1c(-c2ccc(O)cc2)sc(C=NO)c1-c1ccc(O)cc1`, for which the melting point lay in the range of 233 to 234 °C. Next, `O[C@@H](COc1cccc(-c2noc3ccsc23)c1)CN1CCN(c2ccccc2)CC1`: 127 to 129 °C; `O=C(O)c1ccc(O)c(C(=O)C=Cc2ccc(OCc3ccc4ccccc4n3)cc2)c1`: 258 to 260 °C; `CCOC(=O)COc1cnc(S)nc1O`: 157 to 160 °C. `CC(=O)NCc1ccc(CC(=NNc2ccc(Br)cn2)c2ccccc2)o1` registered a melting point of 176 °C. Next, `CC(C)(Oc1ccccc1)C(=O)N[C@H]1CC[C@H](c2ccc(O)cc2)CC1`: 114 to 117 °C; `O=Cc1nc2cnccc2s1`: 96.5 to 98 °C. As for `CCc1ccc2c(c1)C=Cc1cc(C)ccc1C2c1cn(-c2nccc(C(=O)NCC(=O)O)n2)c(=O)[nH]c1=O` (stereo not given), the figure is 195 to 198 °C; as for `CS(=O)(=O)Nc1ccc2c(c1)CC(=O)N2CCN1CCN(Cc2ccccc2)CC1`, 196 to 198 °C.

Turning to `COc1ccc(N2CCN(c3c(C)c(C)c4c(c3C)C(O)(c3ccc(F)nc3)C(C)(C)O4)CC2)cc1` (stereo not given), the melting point lay in the range of 129 to 131 °C. Next, `CCOC(=O)C1=C(C)NC(C)=C(C#N)C1c1ccnc2ncc(-c3ccccc3)cc12` (stereo not given): 265 °C; `N#CC1CN1C(=O)CCN1C(=O)c2ccccc2C1=O` (stereo not given): 168 to 170 °C.

`COc1ccc(C(=O)Cc2ccncc2)cc1OC1CCCC1`: the melting point was in the range of 102 to 103 °C.

`Cc1[nH]c2ccc(OS(=O)(=O)c3c(F)cccc3F)cc2c1C1CCN(C)CC1` registered a melting point of 138 °C.

Consider `O=C(O)CCCOc1cccc(CCCCCCOc2cc(-c3ccsc3)cc(-c3ccc4c(c3)OCO4)c2)c1CCC(=O)O`, for which the melting point was in the range of 110 to 112 °C. As for `CCOC(=O)c1cccc(Nc2ccncc2N)c1`, the figure is 80 to 91 °C; as for `CCCCNC(=O)N1N=C(c2ccc(N)cc2)c2cc(Cl)ccc2CC1C` (stereo not given), 89 to 91 °C; as for `Nc1ncnc2c1c(-c1ccc(Oc3ccccc3)cc1)c(Br)n2C1CCCC1`, 162 °C. Next, `O=C(c1ccc(-c2ccccc2)cc1)c1cccc(C(=O)c2ccc(-c3ccccc3)cc2)c1`: 182 to 186 °C; `CC(c1ccc(F)c(F)c1)n1ncc(-c2ccc(S(N)(=O)=O)cc2)c(-c2ccc(F)cc2)c1=O` (stereo not given): 214 to 215 °C. Next, `OCCCOC(c1ccccc1)(c1ccccc1)c1ccccc1`: 117 to 118 °C; `COC(=O)C1CCc2cc(OCc3ccccc3)c(OCc3ccccc3)cc2C1O` (stereo not given): 121 to 124 °C.

Molecule `Cc1nc(Cc2ccc([N+](=O)[O-])cc2)sc1C` gave a melting point of 93 to 94 °C. Next, `O=C(c1ccc([N+](=O)[O-])cc1)N1Cc2ccnn2Cc2ccccc21`: 227 to 229 °C. Next, `Clc1ccc2ccc(/C=C/c3ccc(CN4CCc5cccc(CCc6nnn[nH]6)c54)cc3)nc2c1`: 83 to 87 °C; `Cn1ccc(NC(=O)c2cc(C#N)cc(C(F)(F)F)n2)n1`: 190 °C; `ON=Cc1ccc2c(c1)ncn2-c1cccc(-c2ccncn2)c1`: 220 to 221 °C. Next, `COc1ccccc1C(=O)N1CCN(C(=O)CNC2CCN(Cc3ccccc3)CC2)C(c2ccc(Cl)c(Cl)c2)C1` (racemic): 71 to 73 °C; `Cc1cc(F)c([N+](=O)[O-])cc1N`: 178 °C; `COc1cc(OC)nc(NC(=O)NS(=O)(=O)c2cscc2C)n1`: 175 to 178 °C. `COc1ccc2c(c1)CCC(CC#N)C2=O` (stereo not given) came in with a melting point of 90 to 93 °C.

Turning to `Nc1ccc2ccccc2c1-c1c(P(=O)(c2ccccc2)c2ccccc2)ccc2ccccc12`, the melting point came out at 133 °C. `COc1cc(F)c(F)cc1OCCN`: the melting point was in the range of 44 to 46 °C. As for `Cc1nc2c(Cl)c(NC(=O)Cc3ccc(Cl)cc3)ccc2s1`, the figure is 227 to 229 °C; as for `CC(=O)Nc1ncc(C)cc1C(C)=O`, 99 to 100 °C; as for `CCS(=O)(=O)Oc1cccc([N+](=O)[O-])c1`, 110 °C. As for `COc1ccc(C(=O)Nc2ccc(C)c(Cl)c2)cc1N`, the figure is 153 to 157 °C; as for `O=C1c2ccccc2C(=O)c2c1c(Br)n1c2Cc2ccccc2C1`, more than 320 °C.

In turn, `CCS(=O)(=O)c1ccc(-c2coc3ccc(-c4nnc(C)o4)cc23)cc1F` returned a melting point of 200 to 201 °C. As for `CSC(=NCCSCc1cc2ccc(CN(C)C)cc2o1)NC#N`, the figure is 98 to 100 °C. Next, `O=C1C2=C(SCCO2)C(O)N1c1ccc(Cl)cn1` (stereo not given): 202 °C; `O=C(O)c1cc(-c2ccc(C(F)(F)F)cc2)c2c3c(ccc2c1)OCO3`: 207 to 209 °C; `CCOC(=O)C1=C(c2ccc(-n3nc(C)nc3C)cc2)NC(C)=C(C(=O)Nc2ccccn2)C1c1ccccc1Cl` (stereo not given): 130 °C. In turn, `COc1cccc(CN2C(=O)CCc3cc(O)c(OC)cc32)c1` displayed a melting point of 137 to 138 °C. Next, `NS(=O)(=O)c1cccc(-c2cccc(-c3nc(-c4ccc(C(F)(F)F)cc4)cc(C(F)F)n3)c2)c1`: 204 °C; `CCOCc1nc2cnc3cccnc3c2n1CC1(O)CCOCC1`: 168 to 169 °C; `COC(=O)Cc1ccc(OCCNC(=O)C2Cc3ccccc3N2S(=O)(=O)c2ccc(-c3cc(C(F)(F)F)ccc3C)cc2)cc1` (stereo not given): 46 to 49 °C.

The molecule `CCOC(=O)c1cc2c3n(ccc-2n1)CC(C(F)(F)F)=N3` registered a melting point of 230 to 231 °C. `Cn1cnc(S(=O)(=O)N2CCC3(CC2)CSC2=C(O3)c3ccccc3C(=O)C2=O)c1` registered a melting point of 256 to 257 °C. Next, `Cc1cc(SCN2C(=O)c3ccccc3C2=O)cc(C(C)(C)C)c1O`: 114 to 116 °C; `CC(C)c1cc(OC2CN(C(c3ccccc3)c3ccccc3)C2)cc2c1C(=O)N(COC(=O)c1c(Cl)cccc1Cl)S2(=O)=O`: 205 to 207 °C; `C[C@@H](C(=O)Nc1ccc(-n2nc(C(F)(F)F)cc2C2CC2)cc1)n1nnc2cccnc21`: 186 to 191 °C. Next, `Cc1oc2cc(O)ccc2c(=O)c1C#N`: more than 300 °C; `O=C1c2cccc3cc4ccccc4c(c23)C(=O)N1CCNCCCCCNCCN1C(=O)c2cccc3cc4ccccc4c(c23)C1=O`: 122 °C.

The molecule `CCc1cc(OCc2ccc(-c3ccccc3C(=O)OC)cc2)c2ccccc2n1` had a melting point of 132 to 134 °C. As for `O=C(N[C@@H](Cc1ccccc1)C[C@H](O)[C@H](Cc1ccccc1)NC(=O)OCc1cscn1)OCc1cscn1`, the figure is 64 to 66 °C. `CCCCCCCCCCCCn1nnnc1NC(=O)Nc1c(C(C)C)cccc1C(C)C` came in with a melting point of 80 to 88 °C.

`Cc1cccc(NC(=O)NCC(=O)N(CC(=O)Oc2ccccc2)c2ccccc2)c1` returned a melting point of 206 °C. Next, `O=C(O)c1cn(C2CC2)c2c(CO)c(N3CCNCC3)c(F)cc2c1=O`: 149 to 152 °C; `Clc1ccccc1C1=NCc2nnc(Cc3ccccc3)n2-c2sc3c(c21)CCNC3`: 192 °C. Next, `CC(=O)Oc1ccc(C#Cc2ccccc2)cc1`: 104 to 106 °C. As for `O=C(O)CON=c1c2nccc3c(Cl)ccc(c32)n2cccc12`, the figure is 202 °C. Take `CC(C)c1cccc(F)c1NC(=S)N/N=C/c1ccc(-c2ncn(-c3ccc(OC(F)(F)F)cc3)n2)cc1`: the melting point was in the range of 210 to 212 °C. Next, `COCCOc1ccc(/C=C/C(=O)NS(=O)(=O)c2cccc(C)c2)c(Oc2ncc(C(F)(F)F)cc2Cl)c1`: 147 to 148 °C. Next, `COC(=O)C(Cl)=C(NC1CC1)C(C(=O)OC)C(=O)C(F)F` (stereo not given): 55 to 57 °C. As to `CC(=O)OC1=C(C(=O)c2ccc(C)cc2)C(c2ccc(OC(F)(F)F)cc2)N(c2ccc(C)nn2)C1=O` (stereo not given), the melting point was in the range of 165 to 166 °C. As for `CCN(CC)C(=O)SC1(C(=O)N(CC)CC)C=CC=NC1F` (stereo not given), the figure is 87 to 88 °C. Turning to `COc1ccc(C#N)cc1C(=O)NCCN1CCC(C(=O)c2ccc(F)cc2)CC1`, the melting point was in the range of 167 to 169 °C.

Turning to `CC(C)(C)c1cc(-c2ccc(NC(=O)[C@H]3CCCC[C@H]3C(=O)O)cc2)cc(C(C)(C)C)c1O` (relative stereo), the melting point was 217 to 220 °C. As for `CC(=O)C1C(=O)c2cccc(N)c2C1=O` (stereo not given), the figure is 126 to 128 °C. Next, `Cc1oc(-c2ccc3ccccc3c2)nc1COc1ccc(COc2ncccc2C#N)cc1`: 145 to 146 °C; `NCCC1(O)CCc2ccccc2C12CCCC2` (stereo not given): 107 to 109 °C. Next, `O=C(O)COc1cc(F)cc(F)c1C(=O)NCc1ccc(Br)cc1F`: 158 to 159 °C. In turn, `COC(=O)CN(C)c1nc(-c2ccc(Br)cc2)c(C=O)s1` had a melting point of 105 to 106 °C.

The molecule `COC(=O)c1nscc1S(=O)(=O)Cl` had a melting point of 42 to 46 °C.

Take `CCCCCCCCCCOc1ccc([N+](=O)[O-])cc1OCCCCCCCCCC`: the melting point is 60 to 61 °C. As to `COc1ccc(COC(=O)NC(CO)Cc2ccc(O)cc2)cc1` (stereo not given), the melting point was 139 to 141 °C. Next, `Clc1ccc(-c2nc3n(c2Br)CCCC3)c(Cl)c1`: 112 to 113 °C.
